The values that follow come from US20050009924A1 (priority 2003, published 2005).

SMILES strings stand for the structures. Where a name gives a salt, the structure may show the parent alone.

By viability is commonly meant a read-out of living cells in per cent, often relative to untreated cells. For orientation: IC50 means the concentration needed to halve the response being measured.

Data set [1] concerns iron-induced lipid peroxidation in rat brain homogenates. Kind of data set: Iron-induced lipid peroxidation in rat brain homogenates. The settings on record: for Inhibition of LP(10 mM): mean percent inhibition (Table 3); for LP (%) (10 mM): relative percentage of inhibition (Table 1).
Data set [2] is described as follows: MTT relative viability, PhTERT-SEAP (H1299) cells. The settings on record: human.
A short description of data set [3]: MTT relative viability, PhTERT-SEAP (hTERT-BJ1) cells. The settings on record: human; for viability at 48 h, 1.9 µM / viability at 48 h, 19 µM / viability at 48 h, 190 µM: hTERT-BJ1 cells, stable PhTERT-SEAP reporter clone.
Data set [4] has as its system transcriptional activity of hTERT. Kind of data set: SEAP reporter assay of hTERT expression, PhTERT-SEAP (H1299). The data set is classed as cell-based, human. The settings on record: for Relative SEAP activity (%) / SEAP/vibility: PhTERT-SEAP(hTERT-H1299). In a few lines: (§1)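 We treated G418-selected reporter cells with varying drug amounts for 24 h and measured SEAP in the heat-inactivated medium as the rate of 405 nm absorbance increase.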
In general terms: In a reporter assay the amount or activity of a reporter protein is the signal.

The test system is the same in data set [5]. Kind of data set: SEAP reporter assay of hTERT expression, PhTERT-SEAP (hTERT-BJ1). The class given is cell-based, human. The settings on record: for Relative SEAP activity (%) / SEAP/vibility: PhTERT-SEAP (hTERT-BJ1). In a few lines: as §1
For the next data set, the system named is human hepatoma G2 cells. Kind of data set: Cytotoxicity assay (XTT colorimetric), Hep G2. The class given is cell-based. The settings on record: 48 h of drug exposure.
A further data set has as its system rat glioma C6 cells. Kind of data set: Cytotoxicity assay (XTT colorimetric), C6 cells. The class given is cell-based. The settings on record: 48 h of drug exposure. In general terms: Tetrazolium assays rely on reduction of a dye to a coloured formazan, in cell work by metabolically active cells.
Data set [6] concerns non-small-cell lung cancer cells H1299. Kind of data set: MTT relative viability, PhTERT-SEAP (H1299) cells. The settings on record: PhTERT-SEAP(hTERT-H1299).
The test system of a further data set is hTERT-BJ1 cells. Kind of data set: MTT relative viability, PhTERT-SEAP (hTERT-BJ1) cells. The settings on record: PhTERT-SEAP (hTERT-BJ1).
Data set [7] deals with hepatitis B virus transfected hepatoma cell lines, HepG 2.2.15 cells. Kind of data set: Cytotoxicity assay, 2.2.15 cells. The data set is classed as cell-based, human. The settings on record: 48 h of drug exposure.
Where [8] appears, read: Homo sapiens, NCI-H1299, H1299, read-out: Relative SEAP activity (%).
Where [9] appears, read: Homo sapiens, hTERT-BJ1, read-out: Relative SEAP activity (%).

Turning to `O=C(Oc1cccc2c1C(=O)c1cccc(OC(=O)c3ccccc3Cl)c1C2=O)c1ccccc1Cl`, the “Inhibition of LP(10 mM)” value in data set [1] (10 mM) is reported as 5 ± 0.5%. Also, in data set [2], the viability at 48 h, 1.9 µM came out at 74 ± 5.3%; the viability at 48 h, 19 µM is 34 ± 3.4%; the viability at 48 h, 190 µM is 30 ± 1.4%. In data set [3], the viability at 48 h, 1.9 µM was 107 ± 5.5%; the viability at 48 h, 19 µM was determined as 92 ± 4.3%; the viability at 48 h, 190 µM was 40 ± 4%. Moreover, in data set [4] (setting [8]), the activity at 1.9 µM was found to be 93 ± 4.4%, the activity at 19 µM is 101 ± 4.9% and the activity at 190 µM amounted to 97 ± 5.3%. Moreover, in [5] (setting [9]), the activity at 1.9 µM amounted to 120 ± 10.5%, the activity at 19 µM was 116 ± 3.7% and the activity at 190 µM was found to be 97 ± 10.8%. Besides, half-maximal inhibition in the data set with human hepatoma G2 cells (Homo sapiens, HepG2) (IC50) required 0.04 ± 0.01 µM. The same compound showed an IC50 in the data set with rat glioma C6 cells (Rattus norvegicus, C6) of 40.7 ± 4.7 µM.

On to `O=C(Oc1cccc2c1C(=O)c1cccc(OC(=O)c3cccc(Cl)c3)c1C2=O)c1cccc(Cl)c1`, for which the “Inhibition of LP(10 mM)” value in [1] (10 mM) is 1 ± 0.1%. In data set [2], the viability at 48 h, 1.9 µM worked out at 98 ± 3.9%; the viability at 48 h, 19 µM was found to be 88 ± 7.2%; the viability at 48 h, 190 µM is 46 ± 3.5%. Further, in data set [3], the viability at 48 h, 1.9 µM turned out to be 101 ± 2.3%; the viability at 48 h, 19 µM stood at 80 ± 6.7%; the viability at 48 h, 190 µM was 44 ± 6%. For the same compound, in data set [4] (setting [8]), the activity at 1.9 µM stood at 83 ± 5.7%, the activity at 19 µM is 92 ± 8.1% and the activity at 190 µM was determined as 81 ± 2.5%. In [5] (setting [9]), the activity at 1.9 µM was 154 ± 23%, the activity at 19 µM is 152 ± 15.8% and the activity at 190 µM was determined as 91 ± 25.2%. Besides, the IC50 with human hepatoma G2 cells (Homo sapiens, HepG2) came out at 15.1 ± 1.9 µM. This compound had an IC50 in the data set on rat glioma C6 cells (Rattus norvegicus, C6) of 25.1 ± 2.8 µM.

Regarding `O=C1c2cccc(SCC(O)CO)c2C(=O)c2cccc(SCC(O)CO)c21` (stereo not drawn), the “LP (%) (10 mM)” value in data set [1] (10 mM) was determined as 83 ± 1.1%. Also, the figures for the viability at 48 h, 2.4 µM in [2] and in data set [3] were 102 ± 6.2% and 98 ± 10.7%, respectively. The results for the viability at 48 h, 24 µM in data set [2] and in data set [3] were 103 ± 4.2% and 86 ± 5.5%, respectively. Further, the viability at 48 h, 240 µM in data set [2] worked out at 83 ± 18.2%; in data set [3], 79 ± 8.2%. Also, the activity at 2.4 µM was 105 ± 21.6% in data set [4] (Homo sapiens, NCI-H1299, 2.4 μM, H1299, read-out: Relative SEAP activity (%)) and 144 ± 16.9% in data set [5] (Homo sapiens, 2.4 μM, hTERT-BJ1, read-out: Relative SEAP activity (%)). The activity at 24 µM in data set [4] (Homo sapiens, NCI-H1299, 24 μM, H1299, read-out: Relative SEAP activity (%)) was 90 ± 5.7%; in [5] (Homo sapiens, 24 μM, hTERT-BJ1, read-out: Relative SEAP activity (%)), 136 ± 10%. Besides, the activity at 240 µM amounted to 81 ± 6.1% in data set [4] (Homo sapiens, NCI-H1299, 240 μM, H1299, read-out: Relative SEAP activity (%)) and 142 ± 9.1% in data set [5] (Homo sapiens, 240 μM, hTERT-BJ1, read-out: Relative SEAP activity (%)). Besides, the IC50 was determined as 34.3 ± 1.8 µM in the data set with human hepatoma G2 cells (Homo sapiens, HepG2) and 38.5 ± 1.5 µM with rat glioma C6 cells (Rattus norvegicus, C6).

For `Cc1c(C)c2c(c(C)c1O)CC[C@@](C)(CCC[C@H](C)CCC[C@H](C)CCCC(C)C)O2` [(+)−α-Tocopherol, reference compound], the “Inhibition (%)” value in data set [1] (0.01 mM) is given as 0%; in data set [1] (0.1 mM) it was 0%; in [1] (1 mM), 55 ± 1.7%; in data set [1] (10 mM) it was 100%. For the same compound, in [1] (10 mM), the “Inhibition of LP(10 mM)” value is >100%. For the same compound, the “LP (%) (10 mM)” value in data set [1] (10 mM) was >100%.

As to `O=C1c2cccc(O)c2C(=O)c2cccc(O)c21` [Anthrarufin, 1,5-dihydroxyanthraquinone, reference compound], in data set [1] (10 mM), the “Inhibition of LP(10 mM)” value is given as −36 ± 1.1^ % and the “LP (%) (10 mM)” value is −36 ± 1.9%.

As for `O=C1O[C@H]([C@@H](O)CO)C(O)=C1O` [Ascorbic acid, reference compound], the “Inhibition (%)” value in data set [1] (0.01 mM) amounted to 10 ± 0.6%; in [1] (0.1 mM), 32 ± 1.2%; in data set [1] (1 mM) it was 75 ± 1.5%; in data set [1] (10 mM), 100%. In data set [1] (10 mM), the “Inhibition of LP(10 mM)” value is >100%. For the same compound, the “LP (%) (10 mM)” value in data set [1] (10 mM) is given as >100%.

`O=C1c2c(O)ccc(O)c2C(=O)c2c(NCCNCCO)ccc(NCCNCCO)c21` [Mitoxantrone-HCl, reference compound]: the “Inhibition (%)” value in data set [1] (0.01 mM) came out at 5 ± 0.3%; in data set [1] (0.1 mM) it was 22 ± 3.5%; in data set [1] (1 mM), 54 ± 2.1%; in data set [1] (10 mM) it was 100%.

Consider `O=C(Nc1ccc(NC(=O)c2ccc(F)cc2)c2c1C(=O)c1ccccc1C2=O)c1ccc(F)cc1` [VI30, 1,4-Bis(4-fluorobenzoylamido)-9,10-anthracenedione], for which the “Relative MTT viability (%)” value in [6] (2.0 μM) came out at 110 ± 5.9%; in data set [6] (20 μM), 103 ± 6.6%; in data set [6] (207 μM) it was 89 ± 6.7%; in the data set on hTERT-BJ1 cells (2.0 μM) it was 103 ± 9.0%; in the data set on hTERT-BJ1 cells (20 μM), 107 ± 3.1%; in the data set on hTERT-BJ1 cells (207 μM), 83 ± 5.3%. In addition, the “Relative SEAP activity (%)” value in data set [4] (2.0 μM) was 111 ± 3.6%; in data set [4] (20 μM), 107 ± 4.8%; in [4] (207 μM), 107 ± 9.0%; in data set [5] (2.0 μM), 104 ± 16.3%; in data set [5] (20 μM), 101 ± 27.6%; in [5] (207 μM), 100 ± 14.5%. For the same compound, the SEAP/vibility worked out at 1.01 in [4] (2.0 μM); 1.04 in [4] (20 μM); 1.20 in data set [4] (207 μM); 1.01 in data set [5] (2.0 μM); 0.95 in [5] (20 μM); 1.20 in [5] (207 μM). Further, the IC50 (in data set [7]; in the data set on human hepatoma G2 cells; in the data set with rat glioma C6 cells) was > 20 µM throughout.

On to `O=C(Nc1ccc(NC(=O)c2ccc(C(F)(F)F)cc2)c2c1C(=O)c1ccccc1C2=O)c1ccc(C(F)(F)F)cc1` [VI31, 1,4-Bis(4-trifluorobenzoylamido)-9,10-anthracenedione], for which the “Relative MTT viability (%)” value in [6] (1.7 μM) is reported as 98 ± 7.8%; in data set [6] (17 μM) it was 100 ± 8.9%; in data set [6] (171 μM) it was 77 ± 6.7%; in the data set with hTERT-BJ1 cells (1.7 μM), 98 ± 4.4%; in the data set on hTERT-BJ1 cells (17 μM) it was 100 ± 3.4%; in the data set with hTERT-BJ1 cells (171 μM) it was 89 ± 3.6%. The “Relative SEAP activity (%)” value in [4] (1.7 μM) worked out at 110 ± 5.5%; in [4] (17 μM), 114 ± 5.6%; in data set [4] (171 μM) it was 96 ± 2.1%; in data set [5] (1.7 μM), 100 ± 15.1%; in data set [5] (17 μM), 90 ± 16.3%; in data set [5] (171 μM) it was 103 ± 17.6%. Moreover, the SEAP/vibility in data set [4] (1.7 μM) is recorded as 1.12; in data set [4] (17 μM), 1.14; in [4] (171 μM) it was 1.24; in data set [5] (1.7 μM) it was 1.02; in data set [5] (17 μM) it was 0.90; in data set [5] (171 μM) it was 1.16. Further, the concentration for half-maximal inhibition (IC50) (in [7]; in the data set on human hepatoma G2 cells; with rat glioma C6 cells) was > 20 µM throughout.

Take `NCC1CC1CCC(=O)Nc1ccc(NC(=O)CCC2CC2CN)c2c1C(=O)c1ccccc1C2=O` (stereo not drawn) [VI36, 1,4-Bis[2-(aminomnethyl)cyclopropanepropionamido]-9,10-anthracenedione]: the “Relative MTT viability (%)” value in [6] (2.0 μM) is reported as 106 ± 4.1%; in data set [6] (20 μM), 64 ± 5.1%; in data set [6] (204 μM) it was 30 ± 4.7%; with hTERT-BJ1 cells (2.0 μM), 103 ± 6.4%; with hTERT-BJ1 cells (20 μM), 92 ± 11.4%; in the data set on hTERT-BJ1 cells (204 μM), 104 ± 17.4%. Further, the “Relative SEAP activity (%)” value in [4] (2.0 μM) came out at 123 ± 12.4%; in data set [4] (20 μM) it was 112 ± 11.5%; in [4] (204 μM) it was 80 ± 14.5%; in data set [5] (2.0 μM), 91 ± 19.4%; in [5] (20 μM), 95 ± 14.2%; in data set [5] (204 μM), 65 ± 15.7%. Moreover, the SEAP/vibility was determined as 1.16 in data set [4] (2.0 μM); 1.76 in data set [4] (20 μM); 2.71 in [4] (204 μM); 0.88 in data set [5] (2.0 μM); 1.03 in data set [5] (20 μM); 0.63 in [5] (204 μM). Further, the figures for the IC50 (in data set [7]; in the data set with human hepatoma G2 cells; in the data set with rat glioma C6 cells) were 3.46 µM, 6.46 µM and 2.76 µM, respectively.
